{
  "source": "patent US7166468B2",
  "about": "“Production of the lantibiotic cinnamycin with genes isolated from Streptomyces cinnamoneus” (Plant Bioscience Limited, priority 2001, dated 2007)",
  "origin": "cited, not measured here",
  "test_system": "B. subtilis",
  "conditions": "stated as known activity",
  "note": "Ends that are not written are not given here.",
  "data": [
    {"substance": "cinnamycin (CRQSCSFGPFTFVCDGNTK; thioether (positions not given here); not fully specified (bridges); also: lanthionine bridges, positions not given here)", "values": [
      {"measurement": "Known activity of cinnamycin: inhibition of the growth of B. subtilis strains", "value": "inhibition of the growth of the B. subtilis strains"}
    ]}
  ]
}
